According to ChEMBL document CHEMBL4033631, “Discovery of benzothiazole derivatives as novel non-sulfamide NEDD8 activating enzyme inhibitors by target-based virtual screening” (Eur J Med Chem, 2017):

Legend:
HCT-116 = experiment: Antitumor activity against human HCT116 cells after 72 hrs by MTT assay; assay type: functional, cell-based; conditions: HCT-116, 72 h
U2OS = experiment: Antitumor activity against human U2OS cells after 72 hrs by MTT assay; assay type: functional, cell-based
Homo sapiens [1] = organism: Homo sapiens; experiment: Inhibition of NAE in human HCT116 cells assessed as decrease in NEDD8 level after 4 hrs by Western blot analysis; assay type: cell-based
Homo sapiens [2] = organism: Homo sapiens; experiment: Inhibition of NAE in human HCT116 cells assessed as decrease in NEDD8-UBC12 complex formation after 4 hrs by Western blot analysis; assay type: cell-based

Row | Compound | IC50 (HCT-116) | IC50 (U2OS) | inhibition (Homo sapiens [1]) | inhibition (Homo sapiens [2])
1 | COc1ccc(/C=N/NC(=O)c2ccc(NC(=O)c3ccccc3Br)cc2)cc1 | > 100 µM | 93.1 µM |  | 
2 | Cc1ccc(S(=O)(=O)Nc2nc(C)c(NC(=O)Nc3ccc(Cl)cc3)s2)cc1 | 47.4 µM | 88.8 µM |  | 
3 | O=C(CSc1ccc(Cl)cc1)Nc1ccc2nc(NC(=O)c3ccc4ccccc4c3)sc2c1 | 4.04 µM | 14.5 µM |  | 
4 | Nc1ccc(SCC(=O)Nc2ccc3nc(NC(=O)c4ccc(C(F)(F)F)cc4)sc3c2)cc1 | 0.1 µM | 1.22 µM | Dose-dependent effect | Dose-dependent effect
5 | O=C(CSc1cccc(O)c1)Nc1ccc2nc(NC(=O)c3cccs3)sc2c1 | 7.02 µM | 63 µM |  | 
6 | CC(O)c1cccc(NC(=O)c2cc(Br)ccc2Br)c1 (configuration not stated) | > 100 µM | > 100 µM |  | 
7 | COc1cc(CNC(C)(C)CO)ccc1OCC(=O)Nc1ccc(C)cc1 | > 100 µM | > 100 µM |  | 
8 | Cn1c(CNC(=O)c2cccs2)nnc1SCC(=O)Nc1cccc(Cl)c1 | > 100 µM | > 100 µM |  | 
9 | O=C(CSc1nc2ccccc2[nH]1)Nc1ccc2nc(NC(=O)c3ccc(C(F)(F)F)cc3)sc2c1 | 3.76 µM | 7.11 µM |  | 
10 | O=C(CSC1CCCCC1)Nc1ccc2nc(NC(=O)c3ccc(C(F)(F)F)cc3)sc2c1 | 21 µM | 12.3 µM |  | 
11 | O=C(CSc1ccc(Cl)cc1)Nc1ccc2nc(NC(=O)c3ccc(C(F)(F)F)cc3)sc2c1 | 0.93 µM | 2.89 µM |  | 
12 | O=C(Cc1nnc(NC(=O)c2ccc(Cl)cc2)s1)N/N=C/c1ccc(O)cc1 | 68.3 µM | > 100 µM |  | 
13 | O=C(CSc1cccc(O)c1)Nc1ccc2nc(NC(=O)c3cc(Cl)cc(Cl)c3)sc2c1 | 5.44 µM | 1.53 µM |  | 
14 | Cc1nc(Nc2nc3ccccc3o2)nc(C)c1C(=O)Nc1ccc(F)cc1 | 15.3 µM | 79.3 µM |  | 
15 | CCn1c(CNc2ccc(OC)cc2)nnc1SCC(=O)Nc1ccc(Cl)cc1 | 39.5 µM | 63.5 µM |  | 
16 | CCCC(=O)Nc1nc2ccc(NC(=O)CSc3cccc(O)c3)cc2s1 | 10.6 µM | 10.1 µM |  | 
17 | CCCC(=O)Nc1nc2ccc(NC(=O)CSc3ccc(Cl)cc3)cc2s1 | 2.12 µM | 3.19 µM |  | 
18 | Cn1c(CNC(=O)c2cccs2)nnc1SCC(=O)Nc1ccc(Cl)cc1 | 91.4 µM | > 100 µM |  | 
19 | O=C(CSc1ccc2ccccc2c1)Nc1ccc2nc(NC(=O)c3ccc(C(F)(F)F)cc3)sc2c1 | 0.3 µM | 3.94 µM | Dose-dependent effect | Dose-dependent effect
20 | O=C(Cn1cc(F)c(=O)n(CC(=O)Nc2ccc(Br)cn2)c1=O)Nc1ccc(Br)cn1 | 11.1 µM | 5.14 µM |  | 
21 | O=C(Cc1nnc(NC(=O)c2ccc(Cl)cc2)s1)N/N=C/c1ccc(O)cc1O | 38.1 µM | 40.4 µM |  | 
22 | Oc1ccc(Cl)cc1/C=N/c1ccc(-c2nc3ccccc3o2)c(O)c1 | 20.1 µM | 21.7 µM |  | 
23 | O=C(CSc1cccc(O)c1)Nc1ccc2nc(NC(=O)c3ccc(C(F)(F)F)cc3)sc2c1 | 0.51 µM | 0.63 µM | Dose-dependent effect | Dose-dependent effect
24 | NS(=O)(=O)OC[C@@H]1C[C@@H](n2ccc3c(N[C@H]4CCc5ccccc54)ncnc32)C[C@@H]1O [PEVONEDISTAT] | 0.19 µM | 0.16 µM |  | 

Continued, in another order:

Row | IC50 (HCT-116) | IC50 (U2OS) | Compound | inhibition (Homo sapiens [1]) | inhibition (Homo sapiens [2])
25 | 41 µM | > 100 µM | O=C(CSc1cccc(O)c1)Nc1ccc2nc(NC(=O)c3ccccc3)sc2c1 |  | 
26 | 6.17 µM | 5.12 µM | O=C(CSc1cccc(O)c1)Nc1ccc2nc(NC(=O)c3ccc(F)cc3)sc2c1 |  | 
27 | 2.3 µM | 13.6 µM | O=C(CSc1ncccc1C(=O)O)Nc1ccc2nc(NC(=O)c3ccc(C(F)(F)F)cc3)sc2c1 |  | 
28 | 0.32 µM | 1 µM | Cc1ccc(SCC(=O)Nc2ccc3nc(NC(=O)c4ccc(C(F)(F)F)cc4)sc3c2)c(C)c1 |  | 
29 | 1.36 µM | 2.51 µM | O=C(CSc1ccc(Cl)cc1)Nc1ccc2nc(NC(=O)c3ccc(F)cc3)sc2c1 |  | 
30 | 7.73 µM | 12.4 µM | Cc1ccc(C(=O)Nc2nc3ccc(NC(=O)CSc4cccc(O)c4)cc3s2)cc1 |  | 
31 | 4.25 µM | 1.77 µM | O=C(CSc1cccc(O)c1)Nc1ccc2nc(NC(=O)c3ccc4ccccc4c3)sc2c1 |  | 
32 | > 100 µM | > 100 µM | O=C(CSc1nnc(NC(=O)COc2ccccc2)s1)Nc1ccc(Br)cc1 |  | 
33 | 66.6 µM | > 100 µM | COc1ccc(C(=O)Nc2nnc(SCC(=O)Nc3ccc(Br)cc3)s2)cc1OC |  | 
34 | 5.13 µM | 2.82 µM | Cc1cc(C)cc(C(=O)Nc2nc3ccc(NC(=O)CSc4cccc(O)c4)cc3s2)c1 |  | 
35 | 2.22 µM | 28.1 µM | O=C(CSc1ncccn1)Nc1ccc2nc(NC(=O)c3ccc(C(F)(F)F)cc3)sc2c1 |  | 
36 | 65 µM | > 100 µM | Cc1cc(C)cc(C(=O)Nc2nc3ccc(NC(=O)CSc4ccc(Cl)cc4)cc3s2)c1 |  | 
37 | 2.12 µM | 3.19 µM | Cc1ccc(C(=O)Nc2nc3ccc(NC(=O)CSc4ccc(Cl)cc4)cc3s2)cc1 |  | 
38 | 2.69 µM | 18.8 µM | O=C(CSc1ncc[nH]1)Nc1ccc2nc(NC(=O)c3ccc(C(F)(F)F)cc3)sc2c1 |  | 
